# Results: ChEMBL document CHEMBL1130845, “Modulation of multidrug resistance by taxuspine C and other taxoids from Japanese yew” (Bioorg Med Chem Lett, 1998)
# Key:
# [1] = test system: L1210; experiment: Cytotoxic activity was evaluated against murine Leukemia L1210 cells; type: functional, cell-based; settings: Mus musculus
# [2] = Cytotoxic activity was evaluated against Epidermoid Carcinoma KB cells; type: functional, cell-based; settings: Homo sapiens
# [3] = Effect on cellular accumulation of Vincristine in multidrug resistant human ovarian cancer 2780AD cells was determined at a dose 10 ug/mL; type: functional, A2780 ADR
# [4] = test system: Mus musculus; experiment: Compound was evaluated for antitumor activity in P388/VCR-bearing mice at 200 mg/kg as in the presence of vincristine at the 0.1 mg/kg; type: functional
# [5] = test system: Mus musculus; experiment: Compound was evaluated for antitumor activity in P388/VCR-bearing mice at 200 mg/kg in the presence of vincristine at 0.1 mg/kg; type: functional
# [6] = test system: Mus musculus; experiment: Compound was evaluated for antitumor activity in P388/VCR-bearing mice at 200 mg/Kg; type: functional
# [7] = test system: Mus musculus; experiment: Compound was evaluated for antitumor activity in P388/VCR-bearing mice at 200 mg/Kg as in the presence of vincristine at 0.1 mg/kg; type: functional
# [8] = test system: Mus musculus; experiment: Compound was evaluated for antitumor activity in P388/VCR-bearing mice at 200 mg/kg in the presence of vincristine at 0.2 mg/kg; type: functional
# [9] = Effect on cellular accumulation of Vincristine in multidrug resistant human ovarian cancer 2780AD cells was determined in the presence at a dose 10 ug/mL of taxoids; type: functional, A2780 ADR
# [10] = test system: Mus musculus; experiment: Compound was evaluated for antitumor activity in P388/VCR-bearing mice at 0.2 mg/Kg as range.; type: functional
# [11] = test system: Mus musculus; experiment: Compound was evaluated for antitumor activity in P388/VCR-bearing mice at 0.2 mg/Kg as the ratio of median survival time of treated mice to control mice; type: functional
# [12] = test system: Mus musculus; experiment: Compound was evaluated for antitumor activity in P388/VCR-bearing mice at 0.2 mg/Kg as in the presence of vincristine at 0.1 mg/kg as the ratio of median survival time of treated mice to control mice; type: functional
# [13] = test system: Mus musculus; experiment: Compound was evaluated for antitumor activity in P388/VCR-bearing mice at 0.2 mg/Kg as percent ratio of median survival time of treated mice to control mice; type: functional
# [14] = test system: Mus musculus; experiment: Compound was evaluated for antitumor activity in P388/VCR-bearing mice at 0.2 mg/Kg in the presence of vincristine at 0.1 mg/kg as percent ratio of median survival time of treated mice to control mice; type: functional
# [15] = test system: Mus musculus; experiment: Compound was evaluated for antitumor activity in P388/VCR-bearing mice at 0.2 mg/Kg in the presence of vincristine at 0.1 mg/kg as range.; type: functional
Compound,IC50 [1],IC50 [2],also measured
C=C1[C@@H](O)C[C@H](OC(C)=O)[C@@]2(C)[C@@H](OC(C)=O)[C@H](OC(C)=O)C3=C(C)[C@@H](O)C[C@@H]([C@@H](OC(C)=O)[C@H]12)C3(C)C,> 10 µg/mL,9.2 µg/mL,–
CC(=O)O[C@H]1C(=O)[C@@]2(C)[C@H]([C@H](OC(=O)c3ccccc3)[C@]3(O)C[C@H](OC(=O)[C@H](O)[C@@H](NC(=O)c4ccccc4)c4ccccc4)C(C)=C1C3(C)C)[C@]1(OC(C)=O)CO[C@@H]1C[C@@H]2O [PACLITAXEL],0.33 µg/mL,–,–
CC(=O)O[C@@]12CO[C@@H]1C[C@H](O)[C@@]1(C)C(=O)[C@H](OC(=O)CC(C)O)C3=C(C)[C@@H](OC(=O)[C@H](O)[C@@H](NC(=O)c4ccccc4)c4ccccc4)C[C@@](O)([C@@H](OC(=O)c4ccccc4)[C@H]21)C3(C)C (some centres undefined),0.95 µg/mL,0.0025 µg/mL,–
C=C1[C@@H](O)CC[C@@]2(C)[C@@H](O)[C@H](OC(C)=O)C3=C(C)C(=O)C[C@@H]([C@@H](O)[C@H]12)C3(C)C,> 10 µg/mL,> 10 µg/mL,–
CC(=O)O[C@H]1C2=C(CO)[C@@H](O)CC[C@@]2(C)[C@@H](OC(C)=O)[C@H](OC(C)=O)[C@@]2(O)[C@H](C)C(=O)C[C@@H]1C2(C)C,> 10 µg/mL,2.6 µg/mL,VCR accumulation [3]: 203
C=C1[C@@H](OC(=O)/C=C/c2ccccc2)C[C@H](O)[C@@]2(C)[C@@H](O)[C@H](OC(C)=O)C3=C(C)C(=O)C[C@@H]([C@@H](O)[C@H]12)C3(C)C,> 10 µg/mL,8.5 µg/mL,–
C=C1[C@@H](O)CC[C@@]2(C)[C@@H](OC(C)=O)[C@H](O)C3=C(C)C(=O)C[C@@H]([C@@H](O)[C@H]12)C3(C)C,> 10 µg/mL,> 10 µg/mL,–
C=C1[C@@H](OC(=O)/C=C/c2ccccc2)CC[C@@]2(C)[C@@H](OC(C)=O)[C@H](OC(C)=O)[C@@]34[C@H](C)C(=O)C[C@@H]([C@@H](OC(C)=O)[C@@]132)C4(C)C [TAXUSPINE C],> 10 µg/mL,> 10 µg/mL,–
C=C1[C@@H](OC(=O)/C=C/c2ccccc2)CC[C@@]2(C)[C@@H](OC(C)=O)[C@H](OC(C)=O)C3=C(C)[C@@H](OC(C)=O)C[C@@H]([C@@H](O)[C@H]12)C3(C)C,5.8 µg/mL,9.2 µg/mL,–
C=C1[C@@H](OC(=O)/C=C/c2ccccc2)C[C@H](OC(C)=O)[C@]2(C)[C@@H]1C[C@@H]1C[C@H](O)C(C)=C([C@@H](OC(C)=O)[C@@H]2OC(C)=O)C1(C)C [TAXEZOPIDINE H],6.2 µg/mL,> 10 µg/mL,–
C=C1C2[C@H](OC(C)=O)[C@@H]3CC(=O)[C@@H](C)C([C@@H](OC(C)=O)[C@H](OC(C)=O)[C@]2(C)CC[C@@H]1OC(=O)/C=C/c1ccccc1)C3(C)C (some centres undefined),5.8 µg/mL,> 10 µg/mL,T/C [4]: 105%; Median T/C [5]: 12 days; T/C [6]: 138%; Range [7]: 10 days; Median T/C [8]: 15.8 days; Range [8]: 12 days
CC(=O)O[C@H]1C(=O)[C@@]2(C)[C@H]([C@H](OC(=O)c3ccccc3)[C@]3(O)C[C@H](O)C(C)=C1C3(C)C)[C@]1(OC(C)=O)CO[C@@H]1C[C@@H]2O [BACCATIN III],> 10 µg/mL,10 µg/mL,VCR accumulation [9]: 84
CCCCCC(=O)N(C)[C@@H](c1ccccc1)[C@@H](O)C(=O)O[C@H]1C[C@@]2(O)[C@@H](OC(=O)c3ccccc3)[C@@H]3[C@]4(OC(C)=O)CO[C@@H]4C[C@H](O)[C@@]3(C)C(=O)[C@H](OC(C)=O)C(=C1C)C2(C)C,0.48 µg/mL,0.17 µg/mL,–
CC[C@]1(O)C[C@H]2CN(CCc3c([nH]c4ccccc34)[C@@](C(=O)OC)(c3cc4c(cc3OC)N(C=O)[C@H]3[C@@](O)(C(=O)OC)[C@H](OC(C)=O)[C@]5(CC)C=CCN6CC[C@]43[C@@H]65)C2)C1 [VINCRISTINE],–,–,Range [10]: 10 days; Median T/C [11]: 12.6 days; Median T/C [12]: 10.6 days; T/C [13]: 110%; T/C [14]: 92%; Range [15]: 10 days
